Reference: patent US4918172A, “Anthracycline antibiotics” (Sanraku Incorporated, priority 1987, dated 1990)
In brackets after ≈: the same amount, converted by molar mass.

How the values were obtained:
Assay type in all cases: cell-based
[1] = system: mouse leukemia L1210 culture cells; experiment: inhibition of propagation (50% growth inhibiting concentration) of mouse leukemia L1210 culture cells; details: read-out: 50% Inhibiting Concentration (IC50) Cell Growth Inhibition
Experimental: (§1) Activity of inhibition propagation of mouse leukemia L1210 culture cells and of inhibition synthesis of nucleic acid in the cells:
L1210 cells (5×10^4 /ml) were inoculated in RPMI 1640 medium (Rose Wellberg Laboratory) containing 20% calf serum, and the compound of the present invention (as indicated in Table 1 below) was added thereto in a concentration of from 0.0005 to 50.0 μg/ml. Thus the cells were incubated in a CO2 incubator at 37° C. for 48 hours, and the 50% growth inhibiting concentration relative to the control group was obtained. The compound of the present invention was dissolved in M/50 acetic acid (pH 3.0) in a concentration of […] and then diluted with Dulbecco PBS (-) (manufactured by Nissui Pharmaceutical Co.), before being added to the medium.

[2] = system: mouse leukemia L1210 culture cells; experiment: inhibition of DNA synthesis in L1210 culture cells (14C-thymidine uptake); details: 10% calf serum RPMI 1640, label added 15 minutes after compound, further 60 minutes at 37° C., read-out: 50% Inhibiting Concentration (IC50) DNA Synthesis Inhibition
Experimental: as §1
(§2) Then a solution of the compound of the present invention prepared as mentioned above was added to the medium in a different concentration. 15 minutes after the addition, ^14 C-uridine (0.05 μCi/ml) or ^14 C-thymidine (0.05 μCi/ml) was added and the medium was further incubated at 37° C. for an additional 60 minutes. A cold 10% trichloroacetic acid (TCA) was added to the reaction solution so that the reaction was stopped and the acid-insoluble substance was precipitated. This was washed twice with a cold 5% TCA and then dissolved in formic acid. Then the radioactivity of the resulting solution was measured, and the 50% uptake inhibiting concentration was obtained from the radioactivity uptake ratio relative to the control group.

[3] = system: mouse leukemia L1210 culture cells; experiment: inhibition of RNA synthesis in L1210 culture cells (14C-uridine uptake); details: 10% calf serum RPMI 1640, label added 15 minutes after compound, further 60 minutes at 37° C., read-out: 50% Inhibiting Concentration (IC50) RNA Synthesis Inhibition
Experimental: as §1, §2

[4] = L1210 cells, RPMI 1640 with 20% calf serum, 37° C., 48 hours

Compound | IC50 [1, 4] | IC50 [2] | IC50 [3] | IC50 ([1]; L1210, 48 h)
CCC1(O)CC(OC2CC(N)C(OC3CCC(O)C(C)O3)C(C)O2)c2c(O)c3c(c(O)c2C1O)C(=O)c1cccc(O)c1C3=O (stereo not drawn) [CG15A] | 0.002 µg/mL (≈ 0.00318 µM) | 1.2 µg/mL (≈ 1.91 µM) | 3 µg/mL (≈ 4.76 µM) | –
CCC1(O)CC(OC2CC(N)C(OC3CC(O)C(O)C(C)O3)C(C)O2)c2c(O)c3c(c(O)c2C1O)C(=O)c1cccc(O)c1C3=O (stereo not drawn) [CG15B] | – | 4.6 µg/mL (≈ 7.12 µM) | 2.5 µg/mL (≈ 3.87 µM) | 0.04 µg/mL (≈ 0.062 µM)
CCC1(O)CC(OC2CC(N)C(OC3CCC(O)C(C)O3)C(C)O2)c2c(O)c3c(c(O)c2C1C(=O)OC)C(=O)c1cccc(O)c1C3=O (stereo not drawn) [CG17A] | 0.5 µg/mL (≈ 0.744 µM) | 3.3 µg/mL (≈ 4.91 µM) | 1.1 µg/mL (≈ 1.64 µM) | –
CCC1(O)CC(OC2CC(N)C(OC3CC(O)C(O)C(C)O3)C(C)O2)c2c(O)c3c(c(O)c2C1C(=O)OC)C(=O)c1cccc(O)c1C3=O (stereo not drawn) [CG17B] | 1.4 µg/mL (≈ 2.04 µM) | 10 µg/mL (≈ 14.5 µM) | 2.3 µg/mL (≈ 3.34 µM) | –
CCC1(O)CC(OC2CC(N)C(OC3CCC(O)C(C)O3)C(C)O2)c2c(O)c3c(c(O)c2C1C(=O)OC)C(=O)c1cccc(OC)c1C3=O (stereo not drawn) [CG19A] | 1 µg/mL (≈ 1.46 µM) | 4.8 µg/mL (≈ 7 µM) | 1.3 µg/mL (≈ 1.9 µM) | –
CCC1(O)CC(OC2CC(N)C(OC3CC(O)C(O)C(C)O3)C(C)O2)c2c(O)c3c(c(O)c2C1C(=O)OC)C(=O)c1cccc(OC)c1C3=O (stereo not drawn) [CG19B] | – | 10 µg/mL (≈ 14.3 µM) | 10 µg/mL (≈ 14.3 µM) | –
CC1OC(OC2C(N)CC(OC3CC(O)(C(C)O)Cc4c(O)c5c(c(O)c43)C(=O)c3c(O)cccc3C5=O)OC2C)CCC1O (stereo not drawn) [CG20A] | – | 1.2 µg/mL (≈ 1.91 µM) | 1.2 µg/mL (≈ 1.91 µM) | –
CC1OC(OC2C(N)CC(OC3CC(O)(C(C)O)Cc4c(O)c5c(c(O)c43)C(=O)c3c(O)cccc3C5=O)OC2C)CC(O)C1O (stereo not drawn) [CG20B] | – | 10 µg/mL (≈ 15.5 µM) | 5 µg/mL (≈ 7.74 µM) | –
CCC1(O)CC(OC2CC(N(C)C)C(OC3CCC(O)C(C)O3)C(C)O2)c2c(O)c3c(c(O)c2C1O)C(=O)c1cccc(O)c1C3=O (stereo not drawn) [CG21A] | – | 0.38 µg/mL (≈ 0.578 µM) | 0.18 µg/mL (≈ 0.274 µM) | –
CCC1(O)CC(OC2CC(NC)C(OC3CCC(O)C(C)O3)C(C)O2)c2c(O)c3c(c(O)c2C1O)C(=O)c1cccc(O)c1C3=O (stereo not drawn) [CG22A] | – | 0.87 µg/mL (≈ 1.35 µM) | 1.4 µg/mL (≈ 2.17 µM) | –
CCC1(O)CC(OC2CC(NC)C(OC3CC(O)C(O)C(C)O3)C(C)O2)c2c(O)c3c(c(O)c2C1O)C(=O)c1cccc(O)c1C3=O (stereo not drawn) [CG22B] | – | 5 µg/mL (≈ 7.58 µM) | 10 µg/mL (≈ 15.2 µM) | –
